Data from PMC8196580, “Identification of Kaurane-Type Diterpenes as Inhibitors of Leishmania Pteridine Reductase I” (Molecules, 2021).
Where two headings read alike, the source gives them in different places.

Tests used:
L. major [1] = assay: ChEMBL dataset of pIC50 values against L. major used for the RF model (Table S1); assay type: cell-based, Leishmania major; further: call rule not given here
From the text: From the ChEMBL database (https://www.ebi.ac.uk/chembl/, accessed on 10 January 2021), we selected a diverse set of 1085 structures that were initially classified according to their predicted activity against L. major.
Excluding these structures minimized the differences in activity values resulting from errors and differences in experimental protocols. […] Standardizer software [JChem, version 16.11.28 (2016), calculation module developed by ChemAxon, https://www.chemaxon.com/, accessed on 20 January 2021] was used to canonize all simplified molecular-input line-entry system (SMILES) codes. After duplicate structures were removed, those with higher pIC50 values were eliminated, facilitating the generation of more restrictive models.

L. major [2] = system: L. major; design: method as in ChEMBL; conditions: ref ChEMBL, cited from earlier work
[3] = Active/Inactive class assigned to the ChEMBL pIC50 value for Random forest model construction, ref ChEMBL
[4] = ChemBL structures with pIC50 values used for Random forest model construction, L. major
[5] = Active/Inactive class assigned to ChemBL structures for Random forest model construction (Table S1)
[6] = ChemBL structures with pIC50 values used for Random forest model construction (Table S1)

| Structure (SMILES) | Outcome (L. major [1]; [3]) | pIC50 Value (L. major [2]; [4]) | Outcome (L. major [1]; [5]) | pIC50 Value (L. major [2]; [6]) |
| --- | --- | --- | --- | --- |
| CC(=O)N1CCN(c2ccc(OC[C@H]3CO[C@](Cn4ccnc4)(c4ccc(Cl)cc4Cl)O3)cc2)CC1 (racemic) [CHEMBL75] | Inactive | 4.62 |  |  |
| COc1cc(NS(C)(=O)=O)ccc1Nc1c2ccccc2nc2ccccc12 [CHEMBL43] |  |  | Active | 5.82 |
| N=C(N)c1ccc(OCCCCCOc2ccc(C(=N)N)cc2)cc1 [CHEMBL55] | Inactive | 4.82 |  |  |
| OC(Cn1cncn1)(Cn1cncn1)c1ccc(F)cc1F [CHEMBL106] | Inactive | 3.79 |  |  |
| CCCCCCCCCCCCCCCCOP(=O)([O-])OCC[N+](C)(C)C [CHEMBL125] | Inactive | 4.44 |  |  |
| COC(=O)C1=C(C)NC(C)=C(C(=O)OC)C1c1ccccc1[N+](=O)[O-] [CHEMBL193] | Inactive | 3.74 |  |  |
| C[C@@H](c1ncncc1F)[C@](O)(Cn1cncn1)c1ccc(F)cc1F [CHEMBL638] | Active | 5.21 |  |  |
| N=C(N)c1ccc(OCCCCCOc2ccc(C(=N)N)cc2)cc1.O=S(=O)(O)CCO [CHEMBL935] | Inactive | 4.08 |  |  |
| COCCOC(=O)C1=C(C)NC(C)=C(C(=O)OC(C)C)C1c1cccc([N+](=O)[O-])c1 (stereo not shown) [CHEMBL1428] | Inactive | 4.51 |  |  |
| COC(=O)C1=C(C)NC(C)=C(C(=O)OCCN(C)Cc2ccccc2)C1c1cccc([N+](=O)[O-])c1 (stereo not shown) [CHEMBL1484] | Inactive | 4.66 |  |  |
| CCOC(=O)C1=C(COCCN)NC(C)=C(C(=O)OC)C1c1ccccc1Cl (stereo not shown) [CHEMBL1491] |  |  |  | 5.47 |
| COc1ccc(CCN(C)CCCC(C#N)(c2ccc(OC)c(OC)c2)C(C)C)cc1OC (stereo not shown) [CHEMBL6966] |  | 4.39 |  |  |
| O=C(/C=C/c1ccc(O)cc1)c1ccccc1 [CHEMBL7747] |  |  | Active | 5.40 |
| CN(C)Cc1ccc(Nc2c3ccc(N)cc3nc3cc(N)ccc23)cc1 [CHEMBL34804] |  |  | Active | 5.30 |
| CN(C)c1ccc(Nc2c3ccccc3nc3ccccc23)cc1 [CHEMBL34941] |  |  | Active | 6.05 |
| CN(C)Cc1ccc(Nc2c3ccc(Cl)cc3nc3cc(Cl)ccc23)cc1 [CHEMBL36404] |  |  | Active | 5.70 |
| CN(C)c1ccc2c(Nc3ccccc3)c3ccc(N(C)C)cc3nc2c1 [CHEMBL37644] |  |  | Active | 7.52 |
| c1ccc(Nc2c3ccccc3nc3ccccc23)cc1 [CHEMBL49436] |  |  | Active | 5.57 |
| CCC(C)n1ncn(-c2ccc(N3CCN(c4ccc(OCC5COC(Cn6cncn6)(c6ccc(Cl)cc6Cl)O5)cc4)CC3)cc2)c1=O (stereo not shown) [CHEMBL64391] |  |  | Active | 5.70 |
| c1cncc(-c2nc3ccccc3[nH]2)c1 [CHEMBL83103] |  |  | Active | 5.48 |
| Nc1ccc(Nc2c3ccccc3nc3ccccc23)cn1 [CHEMBL84678] |  |  | Active | 5.41 |
| CCN(C)c1ccc(Nc2c3ccccc3nc3ccccc23)cc1 [CHEMBL86724] |  |  | Active | 6.00 |
| CCCCCCNc1ccc(Nc2c3ccc(N(C)C)cc3nc3cc(N(C)C)ccc23)cc1 [CHEMBL86823] |  |  | Active | 6.80 |
| CCCCCCN(CCCCCC)c1ccc(Nc2c3ccccc3nc3ccccc23)cc1 [CHEMBL88123] |  |  | Active | 6.62 |
| CCCCCCN(C)c1ccc(Nc2c3ccc(N(C)C)cc3nc3cc(N(C)C)ccc23)cc1 [CHEMBL88461] |  |  | Active | 7.15 |
| CCCCCCNc1ccc(Nc2c3ccccc3nc3ccccc23)cc1OC [CHEMBL88507] |  |  | Active | 6.40 |
| CCCCCCN(C)c1ccc(Nc2c3ccccc3nc3ccccc23)cc1OC [CHEMBL88682] |  |  | Active | 6.22 |
